According to patent US20250327074A1 (SHAOXING INSTITUTE, ZHEJIANG UNIVERSITY, priority 2024, published 2025):

System: TCG codon, mammalian cells
Test: TCG codon recoding efficiency of all amino acids (Table 1)
Type: cell-based
Conditions: TCG codon recoding of the unnatural amino acid with the aaRS and mutation of the same table line; class symbols
Text: Specific details are shown in Table 1 below, where “wt” represents the wild-type aminoacyl-tRNA synthetase, “mutation sites” indicate the positions and types of mutations related to specific unnatural amino acid binding on the wild-type aminoacyl-tRNA synthetase, and “unnatural amino acid” represents the unnatural amino acid corresponding to the mutated aminoacyl-tRNA synthetase. In the unnatural amino acid encoding efficiency, “+” indicates a recoding efficiency greater than 40%, “++” greater than 60%, and “+++” greater than 80%.
Accordingly, this application compiles all amino acids reported in the literature that are recognized by orthogonal aminoacyl-tRNA synthetases in mammalian systems and evaluates their recoding efficiency using the TCG codon as an example.

Structure (SMILES) | Recoding rate (%)
N[C@@H](Cc1ccc(NC(=O)CCl)cc1)C(=O)O [compound 356] | +++ (“+++” greater than 80%)
N[C@@H](Cc1ccc(C=CCCc2ccc3ccccc3c2)cc1)C(=O)O [compound 321] | ++ (“++” greater than 60%)
CCCCCCCC#Cc1ccc(C[C@H](N)C(=O)O)cc1 [compound 313] | + (“+” indicates a recoding efficiency greater than 40%)
Cc1ccc2c(C[C@H](N)C(=O)O)c[nH]c2c1C [compound 295] | +++ (“+++” greater than 80%)
[N-]=[N+]=Nc1ccc2[nH]cc(C[C@H](N)C(=O)O)c2c1 [compound 416] | + (“+” indicates a recoding efficiency greater than 40%)
N[C@@H](Cc1ccc(CC(=O)O)cc1)C(=O)O [compound 357] | ++ (“++” greater than 60%)
N[C@@H](CCCCS)C(=O)O [compound 395] | ++ (“++” greater than 60%)
C#CCSC[C@H](N)C(=O)O [compound 273] | + (“+” indicates a recoding efficiency greater than 40%)
N[C@@H](Cc1c[nH]c2c3c(ccc12)OCC3)C(=O)O [compound 285] | ++ (“++” greater than 60%)
N[C@@H](CSCc1ccccc1[N+](=O)[O-])C(=O)O [compound 401] | +++ (“+++” greater than 80%)
N[C@@H](Cc1ccc(C(=O)CF)cc1)C(=O)O [compound 338] | ++ (“++” greater than 60%)
CC([Se]CC(N)C(=O)O)c1cc2c(cc1[N+](=O)[O-])OCO2 (mixture of isomers) [compound 275] | + (“+” indicates a recoding efficiency greater than 40%)
CN(C)c1cccc(C[C@H](N)C(=O)O)c1 [compound 288] | +++ (“+++” greater than 80%)
CC#CCOc1ccc(C[C@H](N)C(=O)O)cc1 [compound 239] | ++ (“++” greater than 60%)
N[C@@H](Cc1ccc(C(=O)c2ccc(Cl)cc2)cc1)C(=O)O [compound 343] | ++ (“++” greater than 60%)
[N-]=[N+]=NCCCCCSC[C@H](N)C(=O)O [compound 389] | ++ (“++” greater than 60%)
CC(OC(=O)NCSCCC(N)C(=O)O)c1cc2c(cc1[N+](=O)[O-])OCO2 (mixture of isomers) [compound 271] | + (“+” indicates a recoding efficiency greater than 40%)
COc1cccc2c(C[C@H](N)C(=O)O)c[nH]c12 [compound 303] | +++ (“+++” greater than 80%)
C#CCCC(=O)Nc1ccc(C[C@H](N)C(=O)O)cc1 [compound 351] | +++ (“+++” greater than 80%)
N[C@@H](CSCc1ccccc1[N+](=O)[O-])C(=O)O [compound 268] | + (“+” indicates a recoding efficiency greater than 40%)
CCCCCCC#Cc1ccc(C[C@H](N)C(=O)O)cc1 [compound 312] | ++ (“++” greater than 60%)

Structure (SMILES) | Recoding rate (%)
N[C@@H](CNc1ccc2ccccc2c1)C(=O)O [compound 392] | ++ (“++” greater than 60%)
CN(C)c1ccc(-c2oc(N)nc2C(=O)O)cc1 [compound 279] | ++ (“++” greater than 60%)
C=CCC(=O)Nc1ccc(C[C@H](N)C(=O)O)cc1 [compound 354] | +++ (“+++” greater than 80%)
N[C@@H](Cc1ccc(C#CCCCCCBr)cc1)C(=O)O [compound 317] | + (“+” indicates a recoding efficiency greater than 40%)
N[C@@H](CCC(=O)OCc1ccccc1[N+](=O)[O-])C(=O)O [compound 263] | + (“+” indicates a recoding efficiency greater than 40%)
N[C@@H](Cc1ccc(OCC2CCCC2)cc1)C(=O)O [compound 238] | ++ (“++” greater than 60%)
CC(=O)c1ccc2cc(NC[C@H](N)C(=O)O)ccc2c1 [compound 391] | ++ (“++” greater than 60%)
N[C@@H](Cc1ccc(C#CCc2ccccc2)cc1)C(=O)O [compound 318] | +++ (“+++” greater than 80%)
[N-]=[N+]=NCCC(=O)Nc1ccc(C[C@H](N)C(=O)O)cc1 [compound 350] | +++ (“+++” greater than 80%)
N[C@@H](Cc1ccc(C(=O)c2cccc(F)c2)cc1)C(=O)O [compound 340] | ++ (“++” greater than 60%)
Nc1ccc2[nH]cc(C[C@H](N)C(=O)O)c2c1 [compound 417] | + (“+” indicates a recoding efficiency greater than 40%)
CC(OC(=O)NCSCC(N)C(=O)O)c1cc2c(cc1[N+](=O)[O-])OCO2 (mixture of isomers) [compound 270] | + (“+” indicates a recoding efficiency greater than 40%)
CCCCCCSC[C@H](N)C(=O)O [compound 379] | ++ (“++” greater than 60%)
N[C@@H](Cc1ccc(C#CCCCBr)cc1)C(=O)O [compound 316] | ++ (“++” greater than 60%)
C#Cc1cc(C[C@H](N)C(=O)O)ccc1OS(=O)(=O)F [compound 324] | ++ (“++” greater than 60%)
N[C@@H](Cc1ccc([N+](=O)[O-])cc1)C(=O)O [compound 367] | +++ (“+++” greater than 80%)
N[C@@H](Cc1ccc(O)c(I)c1)C(=O)O [compound 334] | +++ (“+++” greater than 80%)
C=CC[Se]C[C@H](N)C(=O)O [compound 272] | + (“+” indicates a recoding efficiency greater than 40%)
CC(SCCOC(=O)NCC(N)C(=O)O)c1cc2c(cc1[N+](=O)[O-])OCO2 (mixture of isomers) [compound 276] | + (“+” indicates a recoding efficiency greater than 40%)
C=CCCC[C@H](N)C(=O)O [compound 406] | +++ (“+++” greater than 80%)
N[C@@H](CCSCNC(=O)Cc1ccccc1)C(=O)O [compound 274] | ++ (“++” greater than 60%)

Same assay, conditions: TCG codon recoding of the unnatural amino acid with the aaRS and mutation of the same table line; numeric values

Structure (SMILES) | Recoding rate (%)
C=Cn1cc(C[C@H](N)C(=O)O)c2ccccc21 [compound 325] | 59%
N[C@@H](Cc1cccc(I)c1)C(=O)O [compound 286] | 61%
N[C@@H](Cc1ccc(O)c(O)c1)C(=O)O [compound 323] | 48%
N[C@@H](Cc1cccc(F)c1F)C(=O)O [compound 228] | 80? %
N[C@@H](Cc1c[nH]c2cc(Br)ccc12)C(=O)O [compound 292] | 73%
CC(=O)c1ccc(C[C@H](N)C(=O)O)cc1 [compound 359] | 78%
CCCSC(=O)CCCC(=O)NCCCC[C@H](N)C(=O)O [compound 284] | 57%
[N-]=[N+]=Nc1ccc(C[C@H](N)C(=O)O)cc1 [compound 298] | 88%
N[C@@H](Cc1ccsc1)C(=O)O [compound 256] | 64%
CCCCCC[C@H](N)C(=O)O [compound 396] | 88%
N[C@@H](Cc1ccc(I)cc1)C(=O)O [compound 370] | 64%
Cn1cc(C[C@H](N)C(=O)O)c2ccccc21 [compound 309] | 63%
Cc1cccc2c(C[C@H](N)C(=O)O)c[nH]c12 [compound 300] | 69%
Cc1ccc2[nH]cc(C[C@H](N)C(=O)O)c2c1 [compound 412] | 37%
N[C@@H](Cc1ccco1)C(=O)O [compound 260] | 43%
COc1ccc2[nH]cc(C[C@H](N)C(=O)O)c2c1 [compound 413] | 85%
Cn1cncc1C[C@H](N)C(=O)O [compound 253] | 85%
N[C@@H](Cc1cc(Br)ccc1Cl)C(=O)O [compound 245] | 75%
N[C@@H](Cc1ccc(OS(=O)(=O)O)cc1)C(=O)O [compound 335] | 85%

Structure (SMILES) | Recoding rate (%)
COc1ccc([N+](=O)[O-])c2c1CCN2C(=O)CC[C@H](N)C(=O)O [compound 374] | 43%
Cc1ccc2c(C[C@H](N)C(=O)O)c[nH]c2c1 [compound 290] | 76%
N[C@@H](Cc1csc2ccccc12)C(=O)O [compound 299] | 84%
N[C@@H](Cc1ccc(O)c(I)c1)C(=O)O [compound 371] | 73%
Nc1cc(C[C@H](N)C(=O)O)ccc1O [compound 361] | 50%
N[C@@H](Cc1c[nH]c2c(F)cccc12)C(=O)O [compound 250] | 74%
N[C@@H](Cc1cccs1)C(=O)O [compound 258] | 72%
N[C@@H](Cc1cccc(I)c1)C(=O)O [compound 329] | 56%
CCCCCSC[C@H](N)C(=O)O [compound 381] | 83%
N[C@@H](Cc1ccc(Br)s1)C(=O)O [compound 259] | 87%
N[C@@H](Cc1ccccc1[N+](=O)[O-])C(=O)O [compound 232] | 72%
N[C@@H](Cc1c[nH]c2cccc(F)c12)C(=O)O [compound 418] | 82%
COc1ccc(C[C@H](N)C(=O)O)cc1 [compound 308] | 68%
N[C@@H](Cc1c[nH]c2ccc(O)cc12)C(=O)O [compound 411] | 75%
N[C@@H](Cc1ccc(OCc2ccccc2)cc1)C(=O)O [compound 240] | 46%
COc1ccc(C[C@H](N)C(=O)O)cc1 [compound 332] | 73%
N[C@@H](Cc1ccc2c(c1)C(=O)C1C=CC=CC1N2)C(=O)O (some centres unmarked) [compound 277] | 63%
CCOc1cc(C[Se]CC(N)C(=O)O)c([N+](=O)[O-])cc1OCC (centres unmarked) [compound 404] | 59%
N[C@@H](Cc1cccc(C(F)(F)F)c1)C(=O)O [compound 234] | 81%
